Data from ChEMBL document CHEMBL4033663, “Design, combinatorial synthesis and biological evaluations of novel 3-amino-1'-((1-aryl-1H-1,2,3-triazol-5-yl)methyl)-2'-oxospiro[benzo[a] pyrano[2,3-c]phenazine-1,3'-indoline]-2-carbonitrile antitumor hybrid molecules” (Eur J Med Chem, 2017).

Columns and labels:
HUVEC = experiment: Antiproliferative activity against human HUVEC cells after 48 hrs by MTT assay; assay type: cell-based
MCF7 = experiment: Antiproliferative activity against human MCF7 cells after 48 hrs by MTT assay; assay type: functional, cell-based; details: MCF7, 48 h
L02 = experiment: Antiproliferative activity against human L02 cells after 48 hrs by MTT assay; assay type: cell-based; details: L02, 48 h
HepG2 = experiment: Antiproliferative activity against human HepG2 cells after 48 hrs by MTT assay; assay type: functional, cell-based; details: HepG2, 48 h
HCT-116 = experiment: Antiproliferative activity against human HCT116 cells after 48 hrs by MTT assay; assay type: functional, cell-based; details: HCT-116, 48 h
A549 = experiment: Antiproliferative activity against human A549 cells after 48 hrs by MTT assay; assay type: functional, cell-based; details: A549, 48 h

| Structure (SMILES) | IC50 (MCF7) | IC50 (HepG2) | IC50 (HCT-116) | IC50 (A549) | IC50 (HUVEC) | IC50 (L02) |
| --- | --- | --- | --- | --- | --- | --- |
| N#CC1=C(N)Oc2c(c3nc4ccccc4nc3c3ccccc23)C12C(=O)N(Cc1cnnn1-c1cc(Cl)ccc1Cl)c1ccccc12 (configuration not stated) | > 50 µM | > 50 µM | > 50 µM | > 50 µM | > 50 µM | > 50 µM |
| Cc1ccc(-n2nncc2CN2C(=O)C3(C(C#N)=C(N)Oc4c3c3nc5ccccc5nc3c3ccccc43)c3ccccc32)cc1Cl (configuration not stated) | > 50 µM | > 50 µM | > 50 µM | > 50 µM | > 50 µM | > 50 µM |
| Cc1cc(C)cc(-n2nncc2CN2C(=O)C3(C(C#N)=C(N)Oc4c(N)cc5nc6ccccc6nc5c43)c3ccccc32)c1 (configuration not stated) | > 50 µM | > 50 µM | > 50 µM | 31.2 µM | > 50 µM | > 50 µM |
| N#CC1=C(N)Oc2c(c3nc4ccccc4nc3c3ccccc23)C12C(=O)N(Cc1cnnn1-c1ccc(S(N)(=O)=O)cc1)c1ccccc12 (configuration not stated) | > 50 µM | 42.2 µM | 31.2 µM | > 50 µM | > 50 µM | > 50 µM |
| N#CC1=C(N)Oc2c(c3nc4ccccc4nc3c3ccccc23)C12C(=O)N(Cc1cnnn1-c1ccc(N)cc1)c1ccccc12 (configuration not stated) | > 50 µM | > 50 µM | 45.2 µM | > 50 µM | > 50 µM | > 50 µM |
| N#CC1=C(N)Oc2c(N)cc3nc4ccccc4nc3c2C12C(=O)N(Cc1cnnn1-c1c(F)cccc1F)c1ccccc12 (configuration not stated) | > 50 µM | > 50 µM | > 50 µM | > 50 µM | > 50 µM | > 50 µM |
| Cc1ccccc1-n1nncc1CN1C(=O)C2(C(C#N)=C(N)Oc3c2c2nc4ccccc4nc2c2ccccc32)c2ccccc21 (configuration not stated) | > 50 µM | > 50 µM | > 50 µM | > 50 µM | > 50 µM | > 50 µM |
| N#CC1=C(N)Oc2c(c3nc4ccccc4nc3c3ccccc23)C12C(=O)N(Cc1cnnn1-c1ccccc1Cl)c1ccccc12 (configuration not stated) | > 50 µM | > 50 µM | > 50 µM | 42.6 µM | > 50 µM | > 50 µM |
| N#CC1=C(N)Oc2c(c3nc4ccccc4nc3c3ccccc23)C12C(=O)N(Cc1cnnn1-c1cccc(S(N)(=O)=O)c1)c1ccccc12 (configuration not stated) | 42.5 µM | 21.5 µM | 11.3 µM | 44.2 µM | 38.6 µM | > 50 µM |
| CC(=O)Nc1ccc(-n2nncc2CN2C(=O)C3(C(C#N)=C(N)Oc4c3c3nc5ccccc5nc3c3ccccc43)c3ccccc32)cc1 (configuration not stated) | > 50 µM | > 50 µM | > 50 µM | > 50 µM | > 50 µM | > 50 µM |
| Cc1ccc(Cl)cc1-n1nncc1CN1C(=O)C2(C(C#N)=C(N)Oc3c(N)cc4nc5ccccc5nc4c32)c2ccccc21 (configuration not stated) | 43.5 µM | 17.3 µM | 37.2 µM | > 50 µM | > 50 µM | > 50 µM |
| Cc1cccc(-n2nncc2CN2C(=O)C3(C(C#N)=C(N)Oc4c3c3nc5ccccc5nc3c3ccccc43)c3ccccc32)c1 (configuration not stated) | > 50 µM | > 50 µM | > 50 µM | 39.6 µM | > 50 µM | > 50 µM |
| Cc1ccc(Cl)cc1-n1nncc1CN1C(=O)C2(C(C#N)=C(N)Oc3c2c2nc4ccccc4nc2c2ccccc32)c2ccccc21 (configuration not stated) | > 50 µM | > 50 µM | > 50 µM | > 50 µM | > 50 µM | > 50 µM |
| N#CC1=C(N)Oc2c(N)cc3nc4ccccc4nc3c2C12C(=O)N(Cc1cnnn1-c1ccc(F)cc1)c1ccccc12 (configuration not stated) | > 50 µM | > 50 µM | > 50 µM | > 50 µM | > 50 µM | > 50 µM |
| N#CC1=C(N)Oc2c(c3nc4ccccc4nc3c3ccccc23)C12C(=O)N(Cc1cnnn1-c1cccc(Cl)c1)c1ccccc12 (configuration not stated) | 43.6 µM | > 50 µM | > 50 µM | 32.6 µM | > 50 µM | 35.2 µM |

The next lines start with results.

| IC50 (MCF7) | IC50 (HepG2) | IC50 (HCT-116) | IC50 (A549) | Structure (SMILES) | IC50 (HUVEC) | IC50 (L02) |
| --- | --- | --- | --- | --- | --- | --- |
| > 50 µM | > 50 µM | 26.1 µM | 18.9 µM | N#CC1=C(N)Oc2c(N)cc3nc4ccccc4nc3c2C12C(=O)N(Cc1cnnn1-c1cccc(Br)c1)c1ccccc12 (configuration not stated) | > 50 µM | > 50 µM |
| 34.4 µM | 33.5 µM | > 50 µM | 29.8 µM | N#CC1=C(N)Oc2c(N)cc3nc4ccccc4nc3c2C12C(=O)N(Cc1cnnn1-c1ccccc1Cl)c1ccccc12 (configuration not stated) | > 50 µM | > 50 µM |
| > 50 µM | > 50 µM | > 50 µM | 11.8 µM | Cc1ccc(-n2nncc2CN2C(=O)C3(C(C#N)=C(N)Oc4c(N)cc5nc6ccccc6nc5c43)c3ccccc32)cc1Cl (configuration not stated) | > 50 µM | > 50 µM |
| > 50 µM | > 50 µM | > 50 µM | > 50 µM | Cc1cc(C)cc(-n2nncc2CN2C(=O)C3(C(C#N)=C(N)Oc4c3c3nc5ccccc5nc3c3ccccc43)c3ccccc32)c1 (configuration not stated) | > 50 µM | > 50 µM |
| > 50 µM | > 50 µM | > 50 µM | > 50 µM | N#CC1=C(N)Oc2c(N)cc3nc4ccccc4nc3c2C12C(=O)N(Cc1cnnn1-c1ccc(Cl)cc1Cl)c1ccccc12 (configuration not stated) | > 50 µM | > 50 µM |
| 20.9 µM | 18.4 µM | 23.9 µM | > 50 µM | N#CC1=C(N)Oc2c(N)cc3nc4ccccc4nc3c2C12C(=O)N(Cc1cnnn1-c1ccc([N+](=O)[O-])cc1[N+](=O)[O-])c1ccccc12 (configuration not stated) | > 50 µM | 22.8 µM |
| 26.8 µM | > 50 µM | > 50 µM | > 50 µM | CCOc1ccc(-n2nncc2CN2C(=O)C3(C(C#N)=C(N)Oc4c(N)cc5nc6ccccc6nc5c43)c3ccccc32)cc1 (configuration not stated) | > 50 µM | > 50 µM |
| > 50 µM | > 50 µM | > 50 µM | > 50 µM | COc1ccc(-n2nncc2CN2C(=O)C3(C(C#N)=C(N)Oc4c3c3nc5ccccc5nc3c3ccccc43)c3ccccc32)cc1 (configuration not stated) | > 50 µM | > 50 µM |
| > 50 µM | > 50 µM | > 50 µM | > 50 µM | Cc1ccc(C)c(-n2nncc2CN2C(=O)C3(C(C#N)=C(N)Oc4c3c3nc5ccccc5nc3c3ccccc43)c3ccccc32)c1 (configuration not stated) | > 50 µM | > 50 µM |
| > 50 µM | > 50 µM | > 50 µM | > 50 µM | CC(=O)Nc1ccc(-n2nncc2CN2C(=O)C3(C(C#N)=C(N)Oc4c(N)cc5nc6ccccc6nc5c43)c3ccccc32)cc1 (configuration not stated) | > 50 µM | > 50 µM |
| > 50 µM | > 50 µM | > 50 µM | > 50 µM | N#CC1=C(N)Oc2c(c3nc4ccccc4nc3c3ccccc23)C12C(=O)N(Cc1cnnn1-c1ccc(F)cc1)c1ccccc12 (configuration not stated) | > 50 µM | > 50 µM |
| > 50 µM | > 50 µM | > 50 µM | > 50 µM | CCc1cccc(C)c1-n1nncc1CN1C(=O)C2(C(C#N)=C(N)Oc3c(N)cc4nc5ccccc5nc4c32)c2ccccc21 (configuration not stated) | > 50 µM | > 50 µM |
| > 50 µM | > 50 µM | > 50 µM | > 50 µM | N#CC1=C(N)Oc2c(c3nc4ccccc4nc3c3ccccc23)C12C(=O)N(Cc1cnnn1-c1ccc(F)c(Cl)c1)c1ccccc12 (configuration not stated) | > 50 µM | > 50 µM |
| > 50 µM | 30.5 µM | > 50 µM | > 50 µM | CCOc1ccccc1-n1nncc1CN1C(=O)C2(C(C#N)=C(N)Oc3c(N)cc4nc5ccccc5nc4c32)c2ccccc21 (configuration not stated) | > 50 µM | > 50 µM |
| 17.8 µM | > 50 µM | > 50 µM | 43.4 µM | N#CC1=C(N)Oc2c(N)cc3nc4ccccc4nc3c2C12C(=O)N(Cc1cnnn1-c1ccc(F)c(Cl)c1)c1ccccc12 (configuration not stated) | > 50 µM | > 50 µM |
| > 50 µM | > 50 µM | 28.7 µM | > 50 µM | N#CC1=C(N)Oc2c(N)cc3nc4ccccc4nc3c2C12C(=O)N(Cc1cnnn1-c1ccc(Cl)cc1[N+](=O)[O-])c1ccccc12 (configuration not stated) | > 50 µM | > 50 µM |
| > 50 µM | > 50 µM | > 50 µM | > 50 µM | N#CC1=C(N)Oc2c(c3nc4ccccc4nc3c3ccccc23)C12C(=O)N(Cc1cnnn1-c1ccccc1Br)c1ccccc12 (configuration not stated) | > 50 µM | > 50 µM |
| > 50 µM | > 50 µM | > 50 µM | > 50 µM | N#CC1=C(N)Oc2c(c3nc4ccccc4nc3c3ccccc23)C12C(=O)N(Cc1cnnn1-c1cccc(Br)c1)c1ccccc12 (configuration not stated) | > 50 µM | > 50 µM |
| > 50 µM | > 50 µM | > 50 µM | > 50 µM | COc1cc(-n2nncc2CN2C(=O)C3(C(C#N)=C(N)Oc4c(N)cc5nc6ccccc6nc5c43)c3ccccc32)c(OC)cc1Cl (configuration not stated) | > 50 µM | > 50 µM |
| 33.2 µM | 33.1 µM | > 50 µM | 10.9 µM | N#CC1=C(N)Oc2c(N)cc3nc4ccccc4nc3c2C12C(=O)N(Cc1cnnn1-c1cc(Cl)ccc1Cl)c1ccccc12 (configuration not stated) | > 50 µM | > 50 µM |
| > 50 µM | > 50 µM | > 50 µM | > 50 µM | COc1ccccc1-n1nncc1CN1C(=O)C2(C(C#N)=C(N)Oc3c2c2nc4ccccc4nc2c2ccccc32)c2ccccc21 (configuration not stated) | > 50 µM | > 50 µM |
| > 50 µM | > 50 µM | > 50 µM | > 50 µM | COc1ccc(-n2nncc2CN2C(=O)C3(C(C#N)=C(N)Oc4c(N)cc5nc6ccccc6nc5c43)c3ccccc32)cc1 (configuration not stated) | > 50 µM | > 50 µM |
